Earlier results on one compound are cited in article PMC7318425 (Bioorganic & medicinal chemistry letters, 2019).

The data set deals with off-target kinases. The conditions noted are these: KinomeScan, compared with ibrutinib.

In the case of `Nc1ncnc2c1c(-c1ccc(Oc3ccccc3)cc1)nn2C1CCN(CCOCCOCC(=O)Nc2ccc3c(c2)C(=O)N(C2CCC(=O)NC2=O)C3=O)CC1` (stereo not shown) [MT802], the off-target kinase binding result was “binds fewer off-target kinases than ibrutinib”.
